In the experiment the target is T1, Klotho β (KLB) (Homo sapiens, UniProt Q86Z14).
T1 construct: expressed in transfected cells; host or cells: HEK 293T (ATCC), pooled Zeocin-selected cells stably expressing hKLB from pcDNA3.1(+)
T1 sequence (Q86Z14 1-1044): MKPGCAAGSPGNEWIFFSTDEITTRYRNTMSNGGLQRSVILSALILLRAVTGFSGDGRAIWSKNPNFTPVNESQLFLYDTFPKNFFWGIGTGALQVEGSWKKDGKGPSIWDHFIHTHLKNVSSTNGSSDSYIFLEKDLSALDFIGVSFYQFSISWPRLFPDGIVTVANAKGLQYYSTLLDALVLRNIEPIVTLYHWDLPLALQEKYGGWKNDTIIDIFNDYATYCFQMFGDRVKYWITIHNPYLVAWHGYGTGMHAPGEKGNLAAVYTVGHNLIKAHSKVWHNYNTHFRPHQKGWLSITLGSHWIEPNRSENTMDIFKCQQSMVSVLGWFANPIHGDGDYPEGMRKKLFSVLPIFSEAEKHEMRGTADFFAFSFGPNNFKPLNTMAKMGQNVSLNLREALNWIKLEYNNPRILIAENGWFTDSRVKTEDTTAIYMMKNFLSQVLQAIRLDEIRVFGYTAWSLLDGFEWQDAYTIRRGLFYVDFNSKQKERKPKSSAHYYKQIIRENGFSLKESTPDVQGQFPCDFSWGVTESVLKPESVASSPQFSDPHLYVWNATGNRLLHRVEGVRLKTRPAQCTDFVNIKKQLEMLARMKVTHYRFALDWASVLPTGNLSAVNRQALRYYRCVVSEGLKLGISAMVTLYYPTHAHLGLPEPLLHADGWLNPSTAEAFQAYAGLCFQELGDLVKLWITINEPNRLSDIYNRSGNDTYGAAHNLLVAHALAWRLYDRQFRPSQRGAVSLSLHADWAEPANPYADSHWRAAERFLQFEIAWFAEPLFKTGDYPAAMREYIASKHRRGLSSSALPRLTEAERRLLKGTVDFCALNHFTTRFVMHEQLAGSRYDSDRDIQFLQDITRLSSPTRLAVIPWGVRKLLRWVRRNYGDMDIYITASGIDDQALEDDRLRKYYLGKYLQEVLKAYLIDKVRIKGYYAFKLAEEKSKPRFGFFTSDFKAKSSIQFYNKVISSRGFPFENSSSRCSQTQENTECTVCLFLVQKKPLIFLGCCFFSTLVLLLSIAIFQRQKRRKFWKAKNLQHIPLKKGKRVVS
The experiment is described as follows: cell-based. Type of experiment: cell-based. The conditions noted are these: for Emax: Table 1, native sequence = 100% response, read-out: % max activity. The method, then:
Cells were cultured in 10% Fetal Bovine Serum containing DMEM High glucose GLUTAMAX® at 37 C, 95% humidity, 5% CO2. For generating the cell line with stable expression, human KLB gene was synthesized by Genscript and subcloned into pcDNA3.1(+) with ZEOCIN® resistance vector (INVITROGEN®) by NheI and NotI restriction enzyme sites. HEK 293T cells were obtained from ATCC and were transiently transfected at 80% confluency using Lipofectamine 3000 (Invitrogen). Selection for KLB-expressing cells was initiated 48 hours post-transfection in the growth media containing 100 μg/ml of ZEOCIN® (Gibco) and continued for 4 weeks with fresh media added every third day. Human KLB expression in pooled cells was confirmed by Western blot and a functional FGF21 MAPK phosphorylation assay.
293 HEK cells expressing hKLB were plated to 90% confluency in 96 well plates coated with poly-D-Lysine. Cells were serum starved for three hours in 0.1% BSA containing media prior to stimulation with protein and/or an antagonist peptide for ten minutes at 37° C. The cell lysate was used for the detection of phospho-Erk1/2 levels by AlphaSureFire kit using the prescribed protocol. The degree of biochemical activation was recorded and analyzed using Origin software by logistic curve fitting. Tests at each concentration were done in triplicates, and the standard deviation is as shown in the graphs. The calculation of maximal activities was done keeping the FGF21 157-181 or FGF19 169-194 peptide activity as standard. The difference between the Erk1/2 phosphorylation signal for the highest (10 μM) and the lowest (0 μM) tested dose for native peptide was considered as 100% and accordingly all the other values were assigned.

The mark [1] stands for this setting: Table 6, derivatives of SEQ ID NO: 180.
[2] abbreviates: Table 1, alanine scan of FGF21 25mer, antagonism of native FGF21 response.
Where [3] appears, read: Table 2(A), FGF21 157-181 alanine mutants, ≥95% maximal activity.
Setting [4] is: Table 5, FGF19/FGF21 chimeric peptides.

We go through 19 substances from patent US11351268B2, “FGF21 C-terminal peptide optimization” (INDIANA UNIVERSITY RESEARCH AND TECHNOLOGY CORPORATION, priority 2016, dated 2022).

The term IC50 denotes the concentration at which inhibition is half-maximal.

No end group written: not given here.

Turning to “PPDVGSSDPASMVGPSQGRSPSYAS-NH2 (C-terminus assumed) [Peptide A10, PPDVGSSDPASMVGPSQGRSPSYAS]”, the Emax amounted to 76%.
Under setting [1], “PPDVGSSDPFGLVGPSQGRSPSFEA-NH2 (C-terminus assumed) [Peptide 0486]” came in with an IC50 of 4.7 ± 1.6 nM.
In the case of “PPDVGSSDPLAMVGPSQGRSPSYAS-NH2 (C-terminus assumed) [Peptide A11, PPDVGSSDPLAMVGPSQGRSPSYAS]”, the Emax is 98%. Besides, 102 nM corresponded to half-maximal inhibition under setting [2] (IC50). This substance also gave an IC50 under setting [3] of 150 nM.
For “PPDVGSSDPLSMAGPSQGRSPSYAS-NH2 (C-terminus assumed) [Peptide A13, PPDVGSSDPLSMAGPSQGRSPSYAS]”, the Emax worked out at 87.9%.
Regarding “PPDVGSSDPLSMVAPSQGRSPSYAS-NH2 (C-terminus assumed) [Peptide A14, PPDVGSSDPLSMVAPSQGRSPSYAS]”, the “% max activity” value turned out to be 97.7%. Under setting [3], this substance returned an IC50 of 130 nM.
Consider “PPDVGSSDPLSMVGASQGRSPSYAS-NH2 (C-terminus assumed) [Peptide A15, PPDVGSSDPLSMVGASQGRSPSYAS]”, for which the Emax was 93.9%. The same substance had an IC50 under setting [3] of 120 nM.
Consider “PPDVGSSDPLSMVGPAQGRSPSYAS-NH2 (C-terminus assumed) [Peptide A16, PPDVGSSDPLSMVGPAQGRSPSYAS]”, for which the Emax was 101%. In addition, under setting [2], half-maximal inhibition (IC50) required 120 nM.
With “PPDVGSSDPLSMVGPSAGRSPSYAS-NH2 (C-terminus assumed) [Peptide A17, PPDVGSSDPLSMVGPSAGRSPSYAS]”, the “% max activity” value was determined as 99.7%. Also, the IC50 under setting [2] worked out at 139 nM. Further, under setting [3], the IC50 is 130 nM.
As to “PPDVGSSDPLSMVGPSQARSPSYAS-NH2 (C-terminus assumed) [Peptide A18, PPDVGSSDPLSMVGPSQARSPSYAS]”, the “% max activity” value is 102.9%. Under setting [2], the IC50 was 139 nM. The IC50 under setting [3] stood at 150 nM.
Consider “PPDVGSSDPLSMVGPSQGASPSYAS-NH2 (C-terminus assumed) [Peptide A19, PPDVGSSDPLSMVGPSQGASPSYAS]”, for which the Emax is 100%. The substance further showed an IC50 under setting [2] of 102 nM.
Consider “PPDVGSSDPLSMVGPSQGRAPSYAS-NH2 (C-terminus assumed) [Peptide A20, PPDVGSSDPLSMVGPSQGRAPSYAS]”, for which the Emax turned out to be 73.5%.
Consider “PPDVGSSDPLSMVGPSQGRSASYAS-NH2 (C-terminus assumed) [Peptide A21, PPDVGSSDPLSMVGPSQGRSASYAS]”, for which the Emax stood at 70.5%.
The same measure, in the same setting: the result for “PPDVGSSDPLSMVGPSQGRSPAYAS-NH2 (C-terminus assumed) [Peptide A22, PPDVGSSDPLSMVGPSQGRSPAYAS]” reads 78.5%.
With “PPDVGSSDPLSMVGPSQGRSPSAAS-NH2 (C-terminus assumed) [Peptide A23, PPDVGSSDPLSMVGPSQGRSPSAAS]”, the “% max activity” value worked out at 73.6%.
With “PPDVGSSDPLSMVGPSQGRSPSYAA-NH2 (C-terminus assumed) [Peptide A25, PPDVGSSDPLSMVGPSQGRSPSYAA]”, the “% max activity” value turned out to be 99.0%.
Take “PPDVGSSDPLSMVGPSQGRSPSYAS-NH2 [Peptide C25, PPDVGSSDPLSMVGPSQGRSPSYAS, reference compound]”: the “% max activity” value turned out to be 100.0%. The substance further returned an IC50 (FIG. 8B, FGF21 and FGF19 C-terminal peptides) of 40 nM. The same substance returned an IC50 under setting [4] of 116 ± 4 nM.
“PPDVGSSDPLSMVTGLEAVRSPSFEA-NH2 (C-terminus assumed) [Peptide 0435]” returned an IC50 under setting [4] of 65.1 ± 4.8 nM.
“PPDVLSMDPFGLVGPSQGRSPSFEA-NH2 (C-terminus assumed) [Peptide 0481]” yielded an IC50 under setting [1] of 2.6 ± 0.8 nM.
As to “PPDVSSMDPFGLVGPSQGRSPSFEA-NH2 (C-terminus assumed) [Peptide 0482]”, half-maximal inhibition under setting [1] (IC50) required 3 ± 1.3 nM.
